In patent publication US20200308162A1, “DRUGS AND COMPOSITIONS FOR OCULAR DELIVERY” (Graybug Vision, Inc., priority 2017, published 2020):
Entries after “also recorded” stand apart in the source; their conditions may differ.

How the values were obtained:
[1] = clinical trials and post-marketing clinical use; cited from earlier work
[2] = In vitro stability of ethacrynic acid prodrugs at 37° C.; type: physicochemical
Excerpt: As evidenced, both prodrugs of ethacrynic acid degrade steadily over the 6 day period. As the ester linkages are hydrolyzed, the parent compound is generated in a linear rate. The rate of degradation to the parent compound is faster for the shorter […] in comparison to the degradation kinetics for ethacrynic acid-PLA(n=4)-ethyl ester (1).
Approximately 94% of the ECA-PLA(n=4) prodrug (1) has been converted to free ECA by day 6, in comparison to only 56% for ECA-PLA(n=6) (25). Also, by day 6, all the initial prodrug has been degraded into intermediates and free drug respectively.

[3] = Drug solubility in water, DMSO and DCM (HPLC of filtered supernatant); conditions: thermodynamic from solid
Procedure: For each test, approximately 5-10 mg was transferred to a 10 mL glass vial. Aqueous or organic solvent was added to each vial to achieve an overall concentration of 50 mg/mL. After vortexing aggressively for 2-3 minutes and sonicating in a bath sonicator for 5 minutes, undissolved drug was spun down at 1200 rpm for 5 minutes to generate a pellet. The supernatant was collected and filtered through a 0.2 μm nylon syringe filter into HPLC vials for drug content analysis. Drug concentration was determined by comparing against a standard calibration curve.

[4] = Percent drug loading of ethacrynic acid prodrug microparticles (RP-HPLC); type: physicochemical
Procedure: To determine the percent drug loading (% DL), 10 mg of particles was weighed into a glass scintillation vial and dissolved with 10 mL of MeCN:water (1:1, v/v). The solution was filtered through a 0.2 μm nylon syringe filter and the drug content was determined by RP-HPLC referenced against a standard calibration curve.

[5] = Drug release kinetics of Timolol and ethacrynic acid prodrugs from polymer microparticles; type: physicochemical
Procedure: The effect of polymer composition including monomer ratio and molecular weight, polymer end-groups (ester or acid), inherent viscosity and polymer blend ratios on particle degradation and drug release kinetics of Timolol-O-ethyl fumurate (17) was evaluated and is illustrated in FIG. 5. The rate of particle degradation was slowed and drug release was prolonged when the mole % of DL-lactide over glycolide was increased. By incorporating polymers with different monomer ratios (i.e., PLA, PLGA8515, PLGA525, PLGA5050 wherein 8515 refers to 85% DL-lactide and 15% glycolide) into the particles, it is possible to fine-tune the degradation rate of the particles to achieve a linear rate of drug release from the particles to minimize burst or lag and to extend the duration of release. […] The 78/22(PLA 5A/PLGA8515 4.5A) and 65/20/15(PLA 4A/PLGA6515 4.5A/PLGA5050 4A) polymer blends generated ideal particles for a 3-6 month linear release formulation. […] The rate of release was independent of the salt form. […] Thus, release rate is not solely dictated by the physicochemical properties of the linker, but rather must be attributed to a combination of parameters that may include linker type and site of linker conjugation.
FIG. 6 illustrates the release kinetics of ethacrynic acid-PLA(n=4)-ethyl ester (1) from PLGA microparticles. The drug was released over a period of approximately 66 days.
FIG. 8 and FIG. 9 illustrate the release kinetics of ethacrynic acid-PLA(n=4)-ethyl ester (1) and ethacrynic acid-PLA(n=6)-ethyl ester (25), respectively, from PLGA microparticles. The drug was released from a number of formulations over a period of greater than 90 days. […] Particles generated with 1% PVA in PBS was compared against particles generated in 1% PVA in water (FIG. 10).
Based upon these initial formulation screens, the formulation comprising of 1% mPEG-PLGA and 99% PLA100 4.5A:PLGA8515 5A (77:22) was selected as the lead formulation for ECA-PLA(n=4) (1) and ECA-PLA(n=6) (25) prodrugs. The particles were prepared in 1% PVA in water. The release profiles for the lead ECA-PLA(n=4) (1) and ECA-PLA(=6) (25) particle formulations are illustrated in FIG. 11.

[6] = Mean size of ethacrynic acid prodrug encapsulated microparticles; type: physicochemical
[7] = In vitro drug release kinetics of Timolol prodrug microparticles in PBS and 1% Tween 20 (pH 7.4) at 37° C.; type: physicochemical
Procedure: In vitro drug release kinetics were evaluated in a release medium composed of PBS and 1% Tween 20 (pH 7.4). Briefly, 10 mg of particles was suspended in 4 mL of the release medium The particle suspension was incubated on an orbital shaker at 150 rpm at 37° C. At various time points, 3 mL of release media was collected, and the suspension was replenished with 3 mL of fresh release media. Collected release samples were frozen and stored at −80° C. until analysis for drug content. The collected samples were filtered through a 0.2 μm syringe filter and analyzed by RP-HPLC. FIG. 17-FIG. 22 illustrate the total and parent Timolol release profile for the microparticles encapsulating bis-prodrugs of Timolol of Table 11.

[8] = Stability of Timolol prodrugs in PBS via HPLC; type: physicochemical; conditions: PBS (100% PBS)
Procedure: The stability of Compound 51 was measured in 100% serum (FIG. 27A), 50% serum and 50% PBS (FIG. 27B), and 100% PBS (FIG. 27C) via HPLC. Each point on the graph is the retention time of Compound 51, parent Timolol, and 4 breakdown products at day 0, 1, 2, 3, 4, or 5 as measured. […] The concentration of the breakdown product with a retention time of 5.454 minutes was higher than the concentration of parent Timolol (retention time=4.4 minutes).
The stability of Compound 52 was measured in PBS (FIG. 28) and the stability of Compound 53 was measured in PBS (FIG. 29).

[9] = PLA100 4.5A + 1% PEG-PLGA5050, polymer 200 mg/mL
[10] = PLA100 4.5A + PLGA7525 6E (69:30) + 1% PEG-PLGA5050, polymer 200 mg/mL
[11] = PLA100 4.5A + PLGA8515 5A (77:22) + 1% PEG-PLGA5050, polymer 200 mg/mL
[12] = PLA100 4.5A + PLGA8515 5A + PLGA5050 4A (64:20:15) + 1% PEG-PLGA5050, polymer 200 mg/mL
[13] = PLA100 4.5A + PLGA8515 5A + PLGA5050 4A (64:30:5) + 1% PEG-PLGA5050, polymer 200 mg/mL
[14] = PLGA7525 4A + 1% PEG-PLGA5050, polymer 200 mg/mL
[15] = PLGA7525 6A + 1% PEG-PLGA5050, polymer 200 mg/mL
[16] = PLGA8515 5A + 1% PEG-PLGA5050, polymer 200 mg/mL
[17] = PLGA8515 5A + PLGA7525 4A (69:30) + 1% PEG-PLGA5050, polymer 200 mg/mL

## CCN(CC)CCNC(=O)c1c(C)[nH]c(/C=C2\C(=O)Nc3ccc(F)cc32)c1C [Sunitinib]
[1]
  hepatotoxicity: observed hepatotoxicity

## C=C(CC)C(=O)c1ccc(OCC(=O)O[C@@H](C)C(=O)O[C@@H](C)C(=O)O[C@@H](C)C(=O)O[C@@H](C)C(=O)OCC)c(Cl)c1Cl [Compound 1, (S)-2-{2-[2,3-Dichloro-4-(2-methylene-butyryl)-phenoxy]-acetoxy}-propionic acid (S)-1-[(S)-1-((S)-1-ethoxycarbonyl-ethoxycarbonyl)-ethoxycarbonyl]-ethyl ester]
[2]; 37° C. over 6 days
  generation of parent ethacrynic acid as ester linkages are hydrolyzed: generated at a linear rate
[2]; 37° C., 6 days
  rate of degradation of the prodrug: slightly faster
[2]; 37° C., day 6
  prodrug converted to free ECA by day 6: Approximately 94%
[3]; DMSO, organic solvent or mixture
  solubility: > 40 mg/mL
[3]; water
  solubility: < 1 mg/mL
[4]; [9]
  % Drug loading: 13.42%
[4]; [10]
  % Drug loading: 14.17%
[4]; [11]
  % Drug loading: 12.56%
[4]; [12]
  % Drug loading: 13.75%
[4]; [13]
  % Drug loading: 12.68%
[4]; [14]
  % Drug loading: 13.09%
[4]; [15]
  % Drug loading: 13.15%
[4]; [16]
  % Drug loading: 13.59%
[4]; [17]
  % Drug loading: 13.49%
[5]; 1% mPEG-PLGA and 99% PLA100 4.5A:PLGA8515 5A (77:22), prepared in 1% PVA in water, FIG. 11
  in vitro release profile of lead microparticle formulation: typical biphasic release profile
[5]; microparticles of PLA/PLGA blends, PLGA blends, FIG. 6
  period over which the drug was released: approximately 66 days
[6]; [9]
  Mean size: 35.06 um
[6]; [10]
  Mean size: 27.40 um
[6]; [11]
  Mean size: 26.60 um
[6]; [12]
  Mean size: 28.34 um
[6]; [13]
  Mean size: 29.86 um
[6]; [14]
  Mean size: 29.85 um
[6]; [15]
  Mean size: 25.21 um
[6]; [16]
  Mean size: 28.90 um
[6]; [17]
  Mean size: 27.74 um

## CC(=O)OCC(=O)N(C[C@@H](COc1nsnc1N1CCOCC1)OC(=O)COC(=O)C(C)OC(=O)C(C)O)C(C)(C)C (stereo partly shown) [Compound 53, Timolol-N-Glycolic acid-OAc-O-Glycolic acid-PLA (n = 2)-OH]
[7]; in vitro
  linear (4-month) drug release: did not exhibit linear drug release; also recorded: did not consistently meet the 4-month criteria
[8]
  stability / breakdown into parent Timolol and breakdown products: breaks down over the course of 8 days; also recorded: a significant amount of an additional breakdown product

## CC(=O)OCC(=O)O[C@H](COc1nsnc1N1CCOCC1)CN(C(=O)COC(C)=O)C(C)(C)C [Compound 52, Timolol-N,O-bis-Glycolic acid-OAc]
[7]; PBS and 1% Tween 20 (pH 7.4), 37° C.
  parent Timolol released relative to total release of prodrug and intermediates: primarily as native parent Timolol
[7]; in vitro, FIG. 21
  maximum release duration: approximately 70 days
[8]
  stability / breakdown into parent Timolol and breakdown products: breaks down over the course of 15 days; also recorded: breaks down into parent Timolol
